Earlier results, collected in article PMC9146500, “New Quinoline–Urea–Benzothiazole Hybrids as Promising Antitubercular Agents: Synthesis, In Vitro Antitubercular Activity, Cytotoxicity Studies, and In Silico ADME Profiling” (Pharmaceuticals, 2022).

Settings: cited from earlier work

CC(C)=CCC/C(C)=C/CNCCNC1C2CC3CC(C2)CC1C3 (stereo not shown) [SQ-109]
clog P: 6.82
